Measured values taken from paper PMC3602187, “From Design to Screening: A New Antimicrobial Peptide Discovery Pipeline” (PLoS ONE, 2013).

These substances were tested on Listeria innocua 33090 (assay: colony overlay assay of peptide-secreting E. coli clones (library screening and re-test)). Conditions: library screening; selected colonies pooled by zone size; peptides identified by 454 sequencing, full-length sequences with minimum 20 reads.
Assay type: cell-based
Parameters: key: higher activity group (H); equal activity group (E); lower activity group (L)
Description: For the in vivo production of AMPs, we have employed an E. coli expression system that relies on periplasmic-expression of recombinant peptides in a host cell that lacks the lpo membrane protein, thus releasing the peptides present in the periplasmic space outside the cells. When the producer cells are grown into colonies on a solid substrate, it leads to accumulation of the recombinant peptides around the colony and allows for easy library screening. The screening assay used in this study was a modified version of the standard agar diffusion method as previously described. Library-transformed E. coli colonies are overlaid with a tester strain and incubated overnight to allow for peptide expression and tester strain growth. Next day, the plates are inspected for the formation of clear growth inhibition zones around E. coli colonies, which is an indication of active AMP production by the host colony.
For the construction of Pln-423 mutant library in E. coli, the expression system that consists of a periplasmic-leaky E. coli strain JE5505 and the expression plasmid pFLAG-CTS was employed for direct screening of peptide activities. It should be noted here that this plasmid contains ompA secretion signal sequence and cleavage of this sequence results in a serine residue at the N-terminal of all mature peptides. A total of 1.0×10^5 colonies, approximately 8-fold coverage of the library, were screened against Listeria innocua 33090 in five separate screening experiments. L. innocua was previously deemed as a suitable indicator for pathogenic L. monocytogenes displaying similar bacteriocin sensitivity, therefore it was used as a surrogate strain throughout this study. The selection process involved two criteria; 1) the size of the each inhibition zone was compared to that of wild-type Pln-423 as a correlation to anti-listerial activity level, 2) when several colonies formed inhibition zones that are very similar in size and character, only a few from each group were selected. The colonies were pooled into three groups based on their activities, giving 43 clones in a higher activity group (H), 81 clones in an equal activity group (E), and 241 clones in a lower activity group (L). Their plasmids were extracted from each activity group and analyzed by both Sanger and 454 high-throughput sequencing to identify peptide sequences.
These clones were also re-tested by colony overlay assay to compare their activities to wild-type Pln-423 based on the size of the inhibition zone around each clone (Figure 2-A). Based on this assay, all ten plantaricin mutants formed larger inhibition zones (10.3±0.5 to 11.4±0.3 mm zone diameter) compared to wild-type Pln-423 (6.2±0.2 mm) against L. innocua 33090. Out of those ten, three clones have a single mutation and […] clones have two mutations and the remaining single clone has three mutations. […] Positions like Ser23, Ser27, His28, and Lys36 were commonly mutated with similar amino acids indicating their potential role on higher peptide activity.
The screening method used in this study was a modified version of the standard colony overlay method as previously described. All the chemicals and growth media supplements were obtained from either Sigma-Aldrich or Fisher Scientific unless otherwise stated. Transformed E. coli JE5505 cells were diluted to 3000–5000 cfu (determined empirically prior to screening by plating serial dilutions of E. coli suspensions of a known absorbance and counting the colonies after incubation) in 25 ml LB soft agar (0.8%, 45°C) per screening plate and poured into 150 mm petri dishes. Once the media was solidified, they were overlaid with 10 ml LB soft agar (45°C) and incubated at 37°C for 24 h for host-colony formation. Next day, these plates were re-overlaid with 10 ml TSB soft agar containing 1 mM IPTG and the indicator strain Listeria innocua ATCC 33090 (diluted to OD600 = 0.03). […]

Substance | activity group by size of inhibition zone compared to wild-type Pln-423
KNYGNGVTCGKHSCSVNWGQAFSCSVEHLANFGHAKC* [GROUP E-UM-10] | E
KYYGNGVTCDKHSCSVNWGQAFKCSVDHLANFGHGKC* [GROUP H-UM-4] | H
KYYGNGVTCGKHSCRVNWAQAFSCTVSHLANFGHGKC* [GROUP L-UM-2] | L
KYYGNGVTCGKHSCSVNAGQAFSCAVSHLANFGHGKC* [Pep-2_497] | E
KYYGNGVTCGKHSCSVNWAQAFSCNVSHLANFGHGKC* [Pep-2_4793] | L
KYYGNGVTCGKHSCSVNWAQAFSCSVSHLANFGHGHC* [Pep-2_1213] | L and E
KYYGNGVTCGKHSCSVNWAQAFSCSVSHLANFGHGLC* [Pep-2_12029] | L
KYYGNGVTCGKHSCSVNWAQAFSCSVVHLANFGHGKC* [Pep-2_6197] | L
KYYGNGVTCGKHSCSVNWAQALSCSVSHLANFGHGKC* [Pep-2_1132] | L
KYYGNGVTCGKHSCSVNWAQGFSCSVSHLANFGHGKC* [Pep-2_1127] | L
KYYGNGVTCGKHSCSVNWGAAFSCAVSHLANFGHGKC* [Pep-2_5015] | L
KYYGNGVTCGKHSCSVNWGDAFSCSVAHLANFGHGKC* [Pep-2_1487] | L
KYYGNGVTCGKHSCSVNWGEAFSCAVSHLANFGHGKC* [Pep-2_5012] | E
KYYGNGVTCGKHSCSVNWGEAFSCSVHHLANFGHGKC* [Pep-2_5876] | E
KYYGNGVTCGKHSCSVNWGEAFSCSVSHLANYGHGKC* [GROUP E-UM-2] | E
KYYGNGVTCGKHSCSVNWGEAFVCSVSHLANFGHGKC* [Pep-2_3608] | E
KYYGNGVTCGKHSCSVNWGGAFSCSVSHLANFGHGWC* [Pep-2_12251] | L
KYYGNGVTCGKHSCSVNWGGALSCSVSHLANFGHGKC* [Pep-2_1780] | L
KYYGNGVTCGKHSCSVNWGHAFSCSVSHLANFGHGHC* [Pep-2_11707] | L

Substance | activity group by size of inhibition zone compared to wild-type Pln-423
KYYGNGVTCGKHSCSVNWGKAFSCGVSHLANFGHGKC* [Pep-2_1367] | L
KYYGNGVTCGKHSCSVNWGKAFSCSVSMLANFGHGKC* [Pep-2_1384] | L
KYYGNGVTCGKHSCSVNWGLAFSCSVSNLANFGHGKC* [Pep-2_6742] | L
KYYGNGVTCGKHSCSVNWGPAFSCSVSRLANFGHGKC* [Pep-2_6528] | L
KYYGNGVTCGKHSCSVNWGQACSCSVSHLANFGHGKC* [Pep-1_30] | L
KYYGNGVTCGKHSCSVNWGQAFACSVSHLANFGFGKC* [GROUP L-UM-23] | L
KYYGNGVTCGKHSCSVNWGQAFACSVSHLANFGHGFC* [Pep-2_3808] | L and E
KYYGNGVTCGKHSCSVNWGQAFACSVSHLANFGHGHC* [Pep-2_11729] | L
KYYGNGVTCGKHSCSVNWGQAFACSVSHLANFGHGKC* [Pep-1_35] | E
KYYGNGVTCGKHSCSVNWGQAFACSVSHLANFGHGWC* [Pep-2_12269] | L
KYYGNGVTCGKHSCSVNWGQAFCCSVSHLANFGHGKC* [GROUP L-UM-17] | L
KYYGNGVTCGKHSCSVNWGQAFCCSVSHLANFGHGSC* [Pep-2_11946] | L
KYYGNGVTCGKHSCSVNWGQAFDCSVSHLANFGHGKC* [GROUP E-UM-1] | E
KYYGNGVTCGKHSCSVNWGQAFDCSVSHLANFGHGKC* [GROUP H-UM-1] | H
KYYGNGVTCGKHSCSVNWGQAFDCSVSHLANFGHGKC* [GROUP L-UM-4] | L
KYYGNGVTCGKHSCSVNWGQAFECRVSHLANFGHGKC* [Pep-2_3415] | L and H
KYYGNGVTCGKHSCSVNWGQAFECSVDHLANFGHGKC* [Pep-2_3428] | E
KYYGNGVTCGKHSCSVNWGQAFECSVSHIANFGHGKC* [Pep-2_3442] | E and H
KYYGNGVTCGKHSCSVNWGQAFECSVSHLANFGHGKC* [Pep-1_32] | L and H

Substance | activity group by size of inhibition zone compared to wild-type Pln-423
KYYGNGVTCGKHSCSVNWGQAFECSVSHLANFGHNKC* [Pep-2_3477] | L
KYYGNGVTCGKHSCSVNWGQAFECSVSHLANFGMGKC* [Pep-2_10754] | E
KYYGNGVTCGKHSCSVNWGQAFECSVSHLATFGHGKC* [Pep-2_3453] | E
KYYGNGVTCGKHSCSVNWGQAFECSVSRLANFGHGKC* [Pep-2_3433] | E
KYYGNGVTCGKHSCSVNWGQAFECSVSWLANFGHGKC* [Pep-2_3438] | L
KYYGNGVTCGKHSCSVNWGQAFKCSVIHLANFGHGKC* [Pep-2_3322] | L
KYYGNGVTCGKHSCSVNWGQAFKCSVSLLANFGHGKC* [Pep-2_3328] | L
KYYGNGVTCGKHSCSVNWGQAFMCSLSHLANFGHGKC* [GROUP L-UM-7] | L
KYYGNGVTCGKHSCSVNWGQAFMCSVEHLANFGHGKC* [Pep-2_6004] | L
KYYGNGVTCGKHSCSVNWGQAFNCSVENLANFGHGKC* [GROUP H-UM-3] | H
KYYGNGVTCGKHSCSVNWGQAFSCAFSHLANFGHGKC* [Pep-2_5044] | L
KYYGNGVTCGKHSCSVNWGQAFSCAVSALANFGHGKC* [Pep-2_5057] | L
KYYGNGVTCGKHSCSVNWGQAFSCAVSHLANFGHGKC* [Pep-1_47] | L
KYYGNGVTCGKHSCSVNWGQAFSCAVSHLANFGHHKC* [Pep-2_5095] | L
KYYGNGVTCGKHSCSVNWGQAFSCAVSHLANFGVGKC* [Pep-2_5092] | L
KYYGNGVTCGKHSCSVNWGQAFSCAVSRLANFGHGKC* [Pep-2_5053] | L
KYYGNGVTCGKHSCSVNWGQAFSCCVSHLANFGHGKC* [GROUP L-UM-1] | L
KYYGNGVTCGKHSCSVNWGQAFSCFVSRLANFGHGKC* [Pep-2_6556] | L
